Results as given in US9833497B2, “Human originated EGF domain proteins and use of the same” (CHENGDU SOURCEBIO LIMITED-LIABILITY COMPANY, priority 2013, dated 2017).

Key:
Assay type in all cases: cell-based
[1] = tested on: Pseudomonas aeruginosa; assay: MIC against Gram-negative bacteria: Pseudomonas aeruginosa
Summary of the method: (§1)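 First, colonies from LB agar were grown in LB at 37° C, 185 rpm, to McFarland turbidity 0.5, then centrifuged and resuspended in fresh LB. Next, wells received 5×10^5 CFU/mL bacteria plus two-fold serially diluted EGF domain protein (triplicate). Finally, plates were shaken at 37° C and the no-growth concentration taken as MIC.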

[2] = tested on: Klebsiella pneumonia; assay: MIC against Gram-negative bacteria: Klebsiella pneumonia
Summary of the method: as §1

[3] = tested on: Proteus mirabilis; assay: MIC against Gram-negative bacteria: Proteus mirabilis
Summary of the method: as §1

[4] = tested on: E. coli BL21; assay: MIC against Gram-negative bacteria: E. coli BL21
Summary of the method: as §1

[5] = tested on: Moraxella catarrhalis; assay: MIC against Gram-negative bacteria: Moraxella catarrhalis
Summary of the method: as §1

[6] = tested on: E. coli DH5α; assay: Antibacterial activity: MIC and growth curve against E. coli DH5α in 96-well plate; settings: minimal inhibitory concentration against E. coli DH5α; 96-well plate, 5×10^5 CFU/mL, 37° C., judged after 8 h
Summary of the method: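 Log-phase DH5α (OD600 about 0.5, 37° C, 185 rpm in LB) was pelleted, resuspended in fresh LB and seeded at 5×10^5 CFU/mL with recombinant protein at 50, 25 and 12.5 μg/mL (two-fold series), in triplicate. Plates were shaken at 175 rpm, 37° C, and OD600 was read every 30 min. MIC was the lowest concentration with no growth.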

[7] = tested on: Aeromonas hydrophila; assay: MIC against Gram-negative bacteria: Aeromonas hydrophila
Summary of the method: as §1

[8] = tested on: Citrobacter diversus; assay: MIC against Gram-negative bacteria: Citrobacter diversus
Summary of the method: as §1

[9] = tested on: Proteus vulgaris; assay: MIC against Gram-negative bacteria: Proteus vulgaris
Summary of the method: as §1

[10] = tested on: Enterobacter cloacae; assay: MIC against Gram-negative bacteria: Enterobacter cloacae
Summary of the method: as §1

[11] = tested on: Serratia marcescens; assay: MIC against Gram-negative bacteria: Serratia marcescens
Summary of the method: as §1

[12] = P. aeruginosa, 10 h cultivation at 37° C., 5×10^5 CFU/mL
[13] = K. pneumonia, 10 h cultivation at 37° C., 5×10^5 CFU/mL
[14] = P. mirabilis, 10 h cultivation at 37° C., 5×10^5 CFU/mL
[15] = E. coli BL21, 10 h cultivation at 37° C., 5×10^5 CFU/mL
[16] = M. catarrhalis, 10 h cultivation at 37° C., 5×10^5 CFU/mL
[17] = A. hydrophila, 10 h cultivation at 37° C., 5×10^5 CFU/mL
[18] = C. diversus, 10 h cultivation at 37° C., 5×10^5 CFU/mL
[19] = P. vulgaris, 10 h cultivation at 37° C., 5×10^5 CFU/mL
[20] = E. cloacae, 10 h cultivation at 37° C., 5×10^5 CFU/mL
[21] = S. marcescens, 10 h cultivation at 37° C., 5×10^5 CFU/mL
[22] = 96-well plate, 5×10^5 CFU/mL, 37° C., 10 h
[23] = Pseudomonas aeruginosa, 5×10^5 CFU/mL, 10 h cultivation at 37° C.
[24] = Klebsiella pneumonia, 5×10^5 CFU/mL, 10 h cultivation at 37° C.
[25] = Proteus mirabilis, 5×10^5 CFU/mL, 10 h cultivation at 37° C.
[26] = E. coli BL21, 5×10^5 CFU/mL, 10 h cultivation at 37° C.
[27] = Moraxella catarrhalis, 5×10^5 CFU/mL, 10 h cultivation at 37° C.
[28] = Aeromonas hydrophila, 5×10^5 CFU/mL, 10 h cultivation at 37° C.
[29] = Citrobacter diversus, 5×10^5 CFU/mL, 10 h cultivation at 37° C.
[30] = Proteus vulgaris, 5×10^5 CFU/mL, 10 h cultivation at 37° C.
[31] = Enterobacter cloacae, 5×10^5 CFU/mL, 10 h cultivation at 37° C.
[32] = Serratia marcescens, 5×10^5 CFU/mL, 10 h cultivation at 37° C.
[33] = Pseudomonas aeruginosa, 96-well plate, 5×10^5 CFU/mL, 37° C., 10 h
[34] = Klebsiella pneumonia, 96-well plate, 5×10^5 CFU/mL, 37° C., 10 h
[35] = Proteus mirabilis, 96-well plate, 5×10^5 CFU/mL, 37° C., 10 h
[36] = E. coli BL21, 96-well plate, 5×10^5 CFU/mL, 37° C., 10 h
[37] = Moraxella catarrhalis, 96-well plate, 5×10^5 CFU/mL, 37° C., 10 h
[38] = Aeromonas hydrophila, 96-well plate, 5×10^5 CFU/mL, 37° C., 10 h
[39] = Citrobacter diversus, 96-well plate, 5×10^5 CFU/mL, 37° C., 10 h
[40] = Proteus vulgaris, 96-well plate, 5×10^5 CFU/mL, 37° C., 10 h
[41] = Enterobacter cloacae, 96-well plate, 5×10^5 CFU/mL, 37° C., 10 h
[42] = Serratia marcescens, 96-well plate, 5×10^5 CFU/mL, 37° C., 10 h

Substance	MIC (μg/mL) P. aeruginosa [1, 12]	MIC (μg/mL) K. pneumonia [2, 13]	MIC (μg/mL) P. mirabilis [3, 14]	MIC (μg/mL) E. coli BL21 [4, 15]	MIC (μg/mL) M. catarrhalis [5, 16]	MIC [6]	MIC (μg/mL) A. hydrophila [7, 17]	MIC (μg/mL) C. diversus [8, 18]	MIC (μg/mL) P. vulgaris [9, 19]	MIC (μg/mL) E. cloacae [10, 20]	MIC (μg/mL) S. marcescens [11, 21]	MIC against P. aeruginosa [1, 23]	MIC against K. pneumonia [2, 24]	MIC against P. mirabilis [3, 25]	MIC against E. coli BL21 [4, 26]	MIC against M. catarrhalis [5, 27]	MIC against A. hydrophila [7, 28]	MIC against C. diversus [8, 29]	MIC against P. vulgaris [9, 30]	MIC against E. cloacae [10, 31]	further results
PRT843 (CQCNGHGDPRRGHCDNLSGLCFCQDHTEGAHCQLCSPGYYGDPRAGGSCFR; listed as Homo sapiens)	12.5 µg/mL	12.5 µg/mL	25 µg/mL	12.5 µg/mL	12.5 µg/mL	25 µg/mL	50 µg/mL	25 µg/mL	25 µg/mL	25 µg/mL	50 µg/mL	–	–	–	–	–	–	–	–	–	–
PRT937 (DIDECISKPCMNHGLCHNTQGSYMCECPPGFSGMDCE; listed as Homo sapiens)	–	–	–	–	–	25 µg/mL	–	–	–	–	–	–	–	–	–	–	–	–	–	–	MIC ([1]; P. aeruginosa, 10 h cultivation at 37° C.): 50 µg/mL; MIC ([2]; K. pneumonia, 10 h cultivation at 37° C.): 25 µg/mL; MIC ([3]; P. mirabilis, 10 h cultivation at 37° C.): 50 µg/mL; MIC ([4]; E. coli BL21, 10 h cultivation at 37° C.): 12.5 µg/mL; MIC ([5]; M. catarrhalis, 10 h cultivation at 37° C.): 12.5 µg/mL; MIC ([7]; A. hydrophila, 10 h cultivation at 37° C.): 50 µg/mL; MIC ([8]; C. diversus, 10 h cultivation at 37° C.): 25 µg/mL; MIC ([9]; P. vulgaris, 10 h cultivation at 37° C.): 12.5 µg/mL; MIC ([10]; E. cloacae, 10 h cultivation at 37° C.): 12.5 µg/mL; MIC ([11]; S. marcescens, 10 h cultivation at 37° C.): 50 µg/mL
PRT239 (SAGPCTPNPCHNGGTCEISEAYRGDTFIGYVCKCPRGFNGIHCQ; listed as Homo sapiens)	12.5 µg/mL	12.5 µg/mL	12.5 µg/mL	12.5 µg/mL	25 µg/mL	25 µg/mL	12.5 µg/mL	100 µg/mL	12.5 µg/mL	12.5 µg/mL	12.5 µg/mL	–	–	–	–	–	–	–	–	–	–
PRT654 (DVNECMGEEHCAPHGECLNSHGSFFCLCAPGFVSAEGGTSCQ; listed as Homo sapiens)	–	–	–	–	–	12.5 µg/mL	–	–	–	–	–	–	–	–	–	–	–	–	–	–	MIC P. aeruginosa [1, 22]: 12.5 µg/mL; MIC K. pneumonia [2, 22]: 50 µg/mL; MIC P. mirabilis [3, 22]: 25 µg/mL; MIC E. coli BL21 [4, 22]: 50 µg/mL; MIC M. catarrhalis [5, 22]: 50 µg/mL; MIC A. hydrophila [7, 22]: 50 µg/mL; MIC C. diversus [8, 22]: 12.5 µg/mL; MIC P. vulgaris [9, 22]: 12.5 µg/mL; MIC E. cloacae [10, 22]: 12.5 µg/mL; MIC S. marcescens [11, 22]: 25 µg/mL
PRT1446 (FLSPCVDDCGPYGQCKLLRTHNYLYAACECKAGWRGWGCT; listed as Homo sapiens)	–	–	–	–	–	12.5 µg/mL	–	–	–	–	–	25 µg/mL	25 µg/mL	12.5 µg/mL	12.5 µg/mL	12.5 µg/mL	25 µg/mL	12.5 µg/mL	25 µg/mL	12.5 µg/mL	MIC against S. marcescens [11, 32]: 12.5 µg/mL
PRT233 (DSRGCARWCPQDSSCVNATACRCNPGFSSFSEIITTPMETCD; listed as Homo sapiens)	12.5 µg/mL	25 µg/mL	100 µg/mL	25 µg/mL	25 µg/mL	12.5 µg/mL	25 µg/mL	12.5 µg/mL	25 µg/mL	12.5 µg/mL	12.5 µg/mL	–	–	–	–	–	–	–	–	–	–
PRT1479 (AKNECHPERTDGCQHFCLPGQESYTCSCAQGYRLGEDHKQCV; listed as Homo sapiens)	–	–	–	–	–	50 µg/mL	–	–	–	–	–	50 µg/mL	100 µg/mL	25 µg/mL	12.5 µg/mL	12.5 µg/mL	12.5 µg/mL	50 µg/mL	50 µg/mL	50 µg/mL	MIC against S. marcescens [11, 32]: 12.5 µg/mL
PRT1440 (DKDECSKDNGGCQHECVNTMGSYMCQCRNGFVLHDNKHDCK; listed as Homo sapiens)	–	–	–	–	–	12.5 µg/mL	–	–	–	–	–	12.5 µg/mL	25 µg/mL	25 µg/mL	25 µg/mL	12.5 µg/mL	25 µg/mL	25 µg/mL	12.5 µg/mL	12.5 µg/mL	MIC against S. marcescens [11, 32]: 25 µg/mL
PRT43 (CKCNGHASLCNTNTGKCFCTTKGVKGDECQLCEVENRYQGNPLRGTCYY; listed as Homo sapiens)	–	–	–	–	–	12.5 µg/mL	–	–	–	–	–	–	–	–	–	–	–	–	–	–	MIC (μg/mL) P. aeruginosa [1, 33]: 12.5 µg/mL; MIC (μg/mL) K. pneumonia [2, 34]: 25 µg/mL; MIC (μg/mL) P. mirabilis [3, 35]: 12.5 µg/mL; MIC (μg/mL) E. coli BL21 [4, 36]: 25 µg/mL; MIC (μg/mL) M. catarrhalis [5, 37]: 25 µg/mL; MIC (μg/mL) A. hydrophila [7, 38]: 25 µg/mL; MIC (μg/mL) C. diversus [8, 39]: 12.5 µg/mL; MIC (μg/mL) P. vulgaris [9, 40]: 25 µg/mL; MIC (μg/mL) E. cloacae [10, 41]: 12.5 µg/mL; MIC (μg/mL) S. marcescens [11, 42]: 12.5 µg/mL
PRT1215 (SNDPCVEKPCPGDMQCVSYEASRRPFLCQCPPGKLGECS; listed as Homo sapiens)	–	–	–	–	–	25 µg/mL	–	–	–	–	–	–	–	–	–	–	–	–	–	–	MIC against P. aeruginosa [1, 33]: 12.5 µg/mL; MIC against K. pneumonia [2, 34]: 25 µg/mL; MIC against P. mirabilis [3, 35]: 25 µg/mL; MIC against E. coli BL21 [4, 36]: 50 µg/mL; MIC against M. catarrhalis [5, 37]: 50 µg/mL; MIC against A. hydrophila [7, 38]: 12.5 µg/mL; MIC against C. diversus [8, 39]: 25 µg/mL; MIC against P. vulgaris [9, 40]: 12.5 µg/mL; MIC against E. cloacae [10, 41]: 50 µg/mL; MIC against S. marcescens [11, 42]: 25 µg/mL
